Results as given in US9527859B2, “Amidopyridine derivative and use thereof” (Mitsubishi Tanabe Pharma Corporation, priority 2012, dated 2016).
pIC50: −log10 of the molar value.

Test system: production of IL-17 in mouse splenocytes stimulated by recombinant mouse interleukin-23
Experiment: Production of IL-17 induced when mouse splenocytes were stimulated by rm-IL-23 (ELISA)
Format: cell-based
Details: Splenocyte, inhibition of IL-17 production, rm-IL-23 1 nmol/L, 72 hours
Experimental: Effect on Production of IL-17 Induced when Mouse Splenocytes were Stimulated by Recombinant Mouse Interleukin-23 (rm-IL-23)
RPMI1640 media (Sigma-Aldrich) were used as a medium, to which 50 units/mL penicillin G potassium/50 μg/mL streptomycin (Gibco) and […] 2-mercaptoethanol (Sigma-Aldrich) were added, and then thereto was added 10% of fetal calf serum (FCS; Cell Culture Technology) which was treated at 56° C. for 30 minutes to be inactivated, and the mixture was used in the Test. The test compound was dissolved in dimethylsulfoxide and then diluted with 10% FCS-containing RPMI1640 medium to a desired concentration to be used. The spleens were aseptically taken out from 6 to 7 week-old male DBA/1J mice (Charles River Japan, Inc.) and a single cell suspension of splenocytes was prepared, which was hemolyzed by hypotonic treatment with a mixed solution of 0.83% aqueous solution of ammonium chloride and Tris-HCl buffer of pH 7.65 (9:1). A cell suspension prepared by using 10% FCS-containing RPMI1640 medium was added to a flat-bottomed 96 well microtestplate (Coaster) at 2×10^5 cells/well. Thereto were added test compounds and rm-IL-23 (R&D systems) were diluted with a medium to 1 to 1,000 nmol/L and 1 nmol/L of the final concentration, respectively, and the mixture was cultured at 37° C., 5% carbon dioxide and 95% air for 72 hours. After completion of the culture, culture supernatant was sampled and production amounts of IL-17 therein were determined by ELISA method. After sampling the supernatant, WST-8 (Seikagaku Corporation) was added at 10 μl/well and cultured at 37° C., 5% carbon dioxide and 95% air for 4 hours. Then, absorbance (O.D.: Optical Density) at 450 nm was measured by a microplate reader and the value was adopted as an index of cell survivability. An inhibition rate was calculated according to the following formula on the basis of an average of production amounts of IL-17 and O.D. values of the well containing a test compound of each concentration. Inhibition (%)=(1−(Average value of well with addition of test compound)/(Average value of well without addition of test compound))×100
Based on the dose-response curve obtained by plotting the inhibition rate in the longitudinal axis and the concentration in the horizontal axis, the concentration of the compound which inhibits the level to 50% of the value of the control group (IC50) (nmol/L) was determined by linear regression analysis.

Compound	pIC50
Cc1ccc(-n2ncc(C(=O)Nc3cnc(N4CCC(C(C)(C)F)CC4)c(C)c3)c2C)cc1 [Example 32, N-{6-[4-(1-fluoro-1-methylethyl)piperidin-1-yl]-5-methylpyridin-3-yl}-5-methyl-1-(4-methylphenyl)-1H-pyrazole-4-carboxamide]	6.81
Cc1c(C(=O)Nc2cnc(N3CCC(O)CC3)c(Cl)c2)cnn1-c1ccc(Cl)cc1 [Example 36, N-[5-chloro-6-(4-hydroxypiperidin-1-yl)pyridin-3-yl]-1-(4-chlorophenyl)-5-methyl-1H-pyrazole-4-carboxamide]	6.85
Cc1cc(NC(=O)c2cnn(-c3ccc(C(F)(F)F)cn3)c2C)cnc1N1CCC(C(C)O)CC1 (stereo not shown) [Example 55, N-{6-[4-(1-hydroxyethyl)piperidin-1-yl]-5-methylpyridin-3-yl}-5-methyl-1-[5-(trifluoromethyl)pyridin-2-yl]-1H-pyrazole-4-carboxamide]	7.30
Cc1cc(NC(=O)c2cnn(-c3ccc(C4CC4)cn3)c2C)cnc1N1CCC(CC(C)(C)O)CC1 [Example 64, 1-(5-cyclopropylpyridin-2-yl)-N-{6-[4-(2-hydroxy-2-methylpropyl)piperidin-1-yl]-5-methylpyridin-3-yl}-5-methyl-1H-pyrazole-4-carboxamide]	7.92
Cc1cc(NC(=O)c2cnn(-c3ccccc3)c2C)cnc1N1CCC(CC(C)(C)O)CC1 [Example 50, N-{6-[4-(2-hydroxy-2-methylpropyl)piperidin-1-yl]-5-methylpyridin-3-yl}-5-methyl-1-phenyl-1H-pyrazole-4-carboxamide]	7.27
Cc1cc(NC(=O)c2cnn(-c3ccc(F)cc3)c2C)cnc1N1CCC(C(C)(C)F)CC1 [Example 34, N-{6-[4-(1-fluoro-1-methylethyl)piperidin-1-yl]-5-methylpyridin-3-yl}-1-(4-fluorophenyl)-5-methyl-1H-pyrazole-4-carboxamide]	6.82
Cc1cc(NC(=O)c2csc(-c3ccc(Cl)cc3)c2)cnc1N1CCC(C(C)(C)O)CC1 [Example 79, 2-(4-chlorophenyl)-N-{6-[4-(1-hydroxy-1-methylethyl)piperidin-1-yl]-5-methylpyridin-3-yl}thiophene-4-carboxamide]	7.36
CC(=O)OC1CCN(c2ncc(NC(=O)c3cnn(-c4ccc(Cl)cc4)c3C)cc2C#N)CC1 [Example 19, acetic acid (1-{5-[1-(4-chlorophenyl)-5-methyl-1H-pyrazole-4-carboxamide]-3-cyanopyridin-2-yl}piperidin-4-yl)ester]	6.67
Cc1cc(NC(=O)c2cnc(-c3ccc(C(F)(F)F)cc3)n2C)cnc1N1CCC(C(C)(C)O)CC1 [Example 76, N-{6-[4-(1-hydroxy-1-methylethyl)piperidin-1-yl]-5-methylpyridin-3-yl}-3-methyl-2-[4-(trifluoromethyl)phenyl]-3H-imidazole-4-carboxamide]	7.52
Cc1cc(NC(=O)c2csc(-c3ccc(Cl)cc3)n2)cnc1N1CCC(C(C)(C)O)CC1 [Example 82, 2-(4-chlorophenyl)-N-{6-[4-(1-hydroxy-1-methylethyl)piperidin-1-yl]-5-methylpyridin-3-yl}thiazole-4-carboxamide]	7.04
Cc1cc(NC(=O)c2cnn(-c3ccc(Cl)cc3)c2C)cnc1N1CCC(C(C)(C)F)CC1 [Example 41, 1-(4-chlorophenyl)-N-{6-[4-(1-fluoro-1-methylethyl)piperidin-1-yl]-5-methylpyridin-3-yl}-5-methyl-1H-pyrazole-4-carboxamide]	6.95
Cc1cc(NC(=O)c2cnc(-c3ccc(Cl)cc3)s2)cnc1N1CCC(C(C)(C)O)CC1 [Example 81, 2-(4-chlorophenyl)-N-{6-[4-(1-hydroxy-1-methylethyl)piperidin-1-yl]-5-methylpyridin-3-yl}thiazole-5-carboxamide]	7.18
Cc1cc(NC(=O)c2cnn(-c3ccc(Cl)cc3)c2C)cnc1N1CCC(C(C)(C)O)CC1 [Example 63, 1-(4-chlorophenyl)-N-{6-[4-(1-hydroxy-1-methylethyl)piperidin-1-yl]-5-methylpyridin-3-yl}-5-methyl-1H-pyrazole-4-carboxamide]	7.81
Cc1cc(NC(=O)c2cnn(-c3ccc(F)c(F)c3)c2C)cnc1N1CCC(C(C)O)CC1 (stereo not shown) [Example 27, 1-(3,4-difluorophenyl)-N-{6-[4-(1-hydroxyethyl)piperidin-1-yl]-5-methylpyridin-3-yl}-5-methyl-1H-pyrazole-4-carboxamide]	6.77
Cc1cc(NC(=O)c2ccn(-c3ccc(C#N)cn3)c2)cnc1N1CCC(C(C)(C)F)CC1 [Example 24, 1-(5-cyanopyridin-2-yl)-N-{6-[4-(1-fluoro-1-methylethyl)piperidin-1-yl]-5-methylpyridin-3-yl}-1H-pyrrole-3-carboxamide]	6.74
CC(=O)OC(C)C1CCN(c2ncc(NC(=O)c3cnn(-c4ccc(C(F)(F)F)cn4)c3C)cc2C)CC1 (stereo not shown) [Example 52, acetic acid {1-[1-(3-methyl-5-{5-methyl-1-[5-(trifluoromethyl)pyridin-2-yl]-1H-pyrazole-4-carboxamide}pyridin-2-yl)piperidin-4-yl]ethyl}ester]	7.27
Cc1cc(NC(=O)c2ccn(-c3ccc(C#N)cn3)c2)cnc1N1CCC(C(C)(C)O)CC1 [Example 46, 1-(5-cyanopyridin-2-yl)-N-{6-[4-(1-hydroxy-1-methylethyl)piperidin-1-yl]-5-methylpyridin-3-yl}-1H-pyrrole-3-carboxamide]	7.22
Cc1cc(NC(=O)c2cnn(-c3ccc(F)cn3)c2C)cnc1N1CCC(CC(C)(C)O)CC1 [Example 60, 1-(5-fluoropyridin-2-yl)-N-{6-[4-(2-hydroxy-2-methylpropyl)piperidin-1-yl]-5-methylpyridin-3-yl}-5-methyl-1H-pyrazole-4-carboxamide]	7.52
COC(C)C1CCN(c2ncc(NC(=O)c3cnn(-c4ccc(C(F)(F)F)cn4)c3C)cc2C)CC1 (stereo not shown) [Example 53, N-{6-[4-(1-methoxyethyl)piperidin-1-yl]-5-methylpyridin-3-yl}-5-methyl-1-[5-(trifluoromethyl)pyridin-2-yl]-1H-pyrazole-4-carboxamide]	7.29
Cc1c(C(=O)Nc2cnc(N3CCC(=O)CC3)c(C3CC3)c2)cnn1-c1ccc(Cl)cc1 [Example 70, 1-(4-chlorophenyl)-N-[5-cyclopropyl-6-(piperidin-4-on-1-yl)pyridin-3-yl]-5-methyl-1H-pyrazole-4-carboxamide]	6.69
Cc1cc(NC(=O)c2cnn(-c3ccc(C(F)(F)F)cn3)c2C)cnc1N1CCC(C(C)(C)O)CC1 [Example 62, N-{6-[4-(1-hydroxy-1-methylethyl)piperidin-1-yl]-5-methylpyridin-3-yl}-5-methyl-1-[5-(trifluoromethyl)pyridin-2-yl]-1H-pyrazole-4-carboxamide]	7.77
Cc1cc(NC(=O)c2cc(-c3ccc(Cl)cc3)cs2)cnc1N1CCC(C(C)(C)O)CC1 [Example 80, 4-(4-chlorophenyl)-N-{6-[4-(1-hydroxy-1-methylethyl)piperidin-1-yl]-5-methylpyridin-3-yl}thiophene-2-carboxamide]	6.73
Cc1cc(NC(=O)c2cnn(-c3ncc(Cl)cc3Cl)c2C)cnc1N1CCC(C(C)(C)F)CC1 [Example 48, 1-(3,5-dichloropyridin-2-yl)-N-{6-[4-(1-fluoro-1-methylethyl)piperidin-1-yl]-5-methylpyridin-3-yl}-5-methyl-1H-pyrazole-4-carboxamide]	7.25
Cc1cc(NC(=O)c2ccc(-c3ccc(Cl)cc3)s2)cnc1N1CCC(C(C)(C)O)CC1 [Example 78, 5-(4-chlorophenyl)-N-{6-[4-(1-hydroxy-1-methylethyl)piperidin-1-yl]-5-methylpyridin-3-yl}thiophene-2-carboxamide]	7.81
Cc1cc(NC(=O)c2cnn(-c3ccc(F)cc3)c2C)cnc1N1CCC(C(C)(C)O)CC1 [Example 54, 1-(4-fluorophenyl)-N-{6-[4-(1-hydroxy-1-methylethyl)piperidin-1-yl]-5-methylpyridin-3-yl}-5-methyl-1H-pyrazole-4-carboxamide]	7.29
